No end group written: not given here.
T1: NPSR1-A (Homo sapiens, UniProt Q6W5P4, N107I)
T1 construct: expressed in transfected cells; host or cells: HEK-293, transient transfection with pCMV-NPSR1-A
T1 sequence (Q6W5P4 1-371 N107I): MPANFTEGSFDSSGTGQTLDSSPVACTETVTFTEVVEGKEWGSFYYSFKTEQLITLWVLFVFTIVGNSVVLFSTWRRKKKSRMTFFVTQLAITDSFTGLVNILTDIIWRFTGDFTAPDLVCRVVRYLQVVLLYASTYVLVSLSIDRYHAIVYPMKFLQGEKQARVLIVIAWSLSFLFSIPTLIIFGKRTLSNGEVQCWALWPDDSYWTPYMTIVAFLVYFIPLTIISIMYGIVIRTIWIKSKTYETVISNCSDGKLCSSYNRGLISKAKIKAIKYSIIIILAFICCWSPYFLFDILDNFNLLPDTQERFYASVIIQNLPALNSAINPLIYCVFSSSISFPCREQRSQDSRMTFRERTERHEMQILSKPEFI

T2: NPSR1-B (Homo sapiens, UniProt Q6W5P4, N107I)
T2 construct: expressed in transfected cells; host or cells: HEK-293, transient transfection with pCMV-NPSR1-B
T2 sequence (Q6W5P4 1-377 isoform Q6W5P4-4 N107I): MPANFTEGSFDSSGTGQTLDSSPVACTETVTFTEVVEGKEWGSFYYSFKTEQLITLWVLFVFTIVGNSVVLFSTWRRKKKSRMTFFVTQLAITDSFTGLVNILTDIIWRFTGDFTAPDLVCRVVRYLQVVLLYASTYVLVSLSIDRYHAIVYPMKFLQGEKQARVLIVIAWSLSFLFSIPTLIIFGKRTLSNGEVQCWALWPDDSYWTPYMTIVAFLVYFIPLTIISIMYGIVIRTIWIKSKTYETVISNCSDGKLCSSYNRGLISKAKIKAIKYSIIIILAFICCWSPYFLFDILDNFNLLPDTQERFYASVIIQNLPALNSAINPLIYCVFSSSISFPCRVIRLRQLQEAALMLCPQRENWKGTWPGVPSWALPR


Columns and labels:
[1] = target: T1, NPSR1-A; assay: cAMP accumulation (EIA), HEK-293 NPSR1-A; format: cell-based; conditions: 0.001-10 μM NPS, 20 min, 200 μM 3-isobutyl-1-methylxanthine 40 min before, six replicas, mean ± SEM
Experimental: (§1) Human embryonic kidney cells (HEK-293) were cultured in MEM+GlutaMAX-1 medium (Gibco/Invitrogen) supplemented with 10% fetal calf serum (FCS) (Biosera), 1% sodium pyruvate, 1% non-essential amino acids and 1% penicillin/streptomycin (Gibco/Invitrogen). Human epithelial lung carcinoma cells (A549) were cultured in F-12/D-MEM medium (1:1; Gibco/Invitrogen) supplemented with 10% FCS, L-glutamine and 1% penicillin/streptomycin. Human neuroblastoma cells (SH-SY5Y) were cultured in MEM + GlutaMAX-1 medium supplemented with 10% FCS and 1% penicillin/streptomycin. All cells were kept at 37°C in a humified 5% CO2 incubator. The cells were transiently transfected (Lipofectamin™2000 Reagent, Invitrogen, Carlsbad, USA) with equal amounts of pCMV-NPSR1-A,- NPSR1-B (construction of the expression vectors has been described earlier) or an empty pCMV vector control in a ratio of 1:2 (DNA:Lipofectamin). […]
(§2) To assay cAMP accumulation, transiently NPSR1-A or -B overexpressing HEK-293 cells were 24 h after transfection incubated for 40 min with 200 μM 3-isobutyl-1-methylxanthine (Sigma-Aldrich, St. Louis, MO, USA), a nonspecific inhibitor of phosphodiesterases. […] The fluorescence intensity was measured before and after injection of 1 μM NPS using the Fluostar Optima microplate reader (BMG Labtechnologies, Offenburg, Germany).

[2] = target: T2, NPSR1-B; assay: NPS concentration-response, mRNA expression by qRT-PCR, HEK-293 NPSR1-B; format: cell-based; conditions: 0.001-10 μM NPS, 6 h, Hill fit, mean ± SEM
Experimental: (§3) Human embryonic kidney cells (HEK-293) were cultured in MEM+GlutaMAX-1 medium (Gibco/Invitrogen) supplemented with 10% fetal calf serum (FCS) (Biosera), 1% sodium pyruvate, 1% non-essential amino acids and 1% penicillin/streptomycin (Gibco/Invitrogen). Human epithelial lung carcinoma cells (A549) were cultured in F-12/D-MEM medium (1:1; Gibco/Invitrogen) supplemented with 10% FCS, L-glutamine and 1% penicillin/streptomycin. Human neuroblastoma cells (SH-SY5Y) were cultured in MEM + GlutaMAX-1 medium supplemented with 10% FCS and 1% penicillin/streptomycin. All cells were kept at 37°C in a humified 5% CO2 incubator. The cells were transiently transfected (Lipofectamin™2000 Reagent, Invitrogen, Carlsbad, USA) with equal amounts of pCMV-NPSR1-A,- NPSR1-B (construction of the expression vectors has been described earlier) or an empty pCMV vector control in a ratio of 1:2 (DNA:Lipofectamin). 24 h post transfection cells were stimulated with NPS ([…]) (Sigma-Genosys LTD, Haverhill, UK or New England Peptide™, Gardner, MA, USA).
(§4) Total cellular RNA was isolated with the RNAeasy Mini Kit (Qiagen, Hilden, Germany) and reverse transcription was done using the iScript™ cDNA synthesis kit (Bio-Rad Laboratories, Hercules, CA, USA) or SuperScript™ First-Strand Synthesis System (Invitrogen, Carlsbad, USA) according to the manufacturer's protocol. All experiments were performed in biological duplicates or triplicates. qRT-PCR was performed using Fast SYBR® Green technology with hypoxanthine-guanine phosphoribosyl transferase (HPRT) or glyceraldehyde-3-phosphate dehydrogenase (GAPDH) as endogenous controls. Gene-specific primers were designed using Primer3 software (for complete lists of all primer sequences please see Additional file 1, Table S1). The PCR assays were performed in a total volume of 10 μl, containing 2 ul cDNA template, 5 ul Fast SYBR® Green PCR Master Mix (Applied Biosystems, Foster City, CA, USA) and 100 nM of each primer. A 7500 Fast Real-Time PCR system (Applied Biosystems) was used according to manufacturer's instructions. A dissociation stage was added to confirm primer specificity. All assays were carried out in technical duplicates or triplicates. Relative quantification and calculation of the range of confidence was performed with the comparative ΔΔCT method. Results are shown as relative expression compared to NPS stimulated empty vector control cells with error bars illustrating the standard error of the mean (SEM). The levels of total NPSR1 mRNA and isoform specific NPSR1-A and NPSR1-B mRNA were measured with qRT-PCR to control for equal isoform expression levels prior to any experiment on all transiently transfected cells (representative data shown Figure 2b).
(§5) To refine concentration and time dependency transiently NPSR1-A, -B or empty pCMV vector overexpressing cells were treated either with 0.001, 0.01, 0.1, 1 or 10 μM NPS for 6 h (concentration-response) or with 2 μM NPS for 30 min, 1, 2, 4, 6, 12, 24 or 48 h (time-response). To verify the results in other cell types, A549 and SH-SY5Y transiently overexpressing NPSR1-A, -B or an empty pCMV vector were treated with 2 μM NPS for 6 h. mRNA expression was measured with qRT-PCR. Agonist concentration-effect curve data were fitted to the Hill equation using an iterative, least squares method (GraphPad Prism, San Diego, CA, U.S.A), to provide estimate EC50 (the agonist concentration that induces half-maximum effect) and presented as -log10 (pEC50) which is normally distributed.

[3] = target: T1, NPSR1-A; assay: NPS concentration-response, mRNA expression by qRT-PCR, HEK-293 NPSR1-A; format: cell-based; conditions: 0.001-10 μM NPS, 6 h, Hill fit, mean ± SEM
Experimental: as §3, §4, §5

[4] = target: T2, NPSR1-B; assay: cAMP accumulation (EIA), HEK-293 NPSR1-B; format: cell-based; conditions: 0.001-10 μM NPS, 20 min, 200 μM 3-isobutyl-1-methylxanthine 40 min before, six replicas, mean ± SEM
Experimental: as §1, §2

[5] = tested on: monocytic cell lines; conditions: pro-inflammatory stimuli, ref [10]; cited from earlier work
Description: The increasing number of positive association studies supports the concept that NPSR1 is mechanistically involved in asthma and allergy, and also in other diseases. It is therefore highly important to understand its functions in more detail. […] Furthermore, we have observed that out ...

[6] = read-out: pEC50, AREG mRNA (converted)
[7] = read-out: pEC50, CGA mRNA (converted)
[8] = read-out: pEC50, NR4A2 mRNA (converted)
[9] = read-out: pEC50, PCK1 mRNA (converted)

| Molecule | EC50 [1] [nM] | EC50 [2, 6] [nM] | EC50 ([2]; read-out: pEC50, CCL20 mRNA (converted)) [nM] | EC50 [2, 7] [nM] | EC50 [2, 8] [nM] | EC50 [2, 9] [nM] | EC50 ([2]; read-out: pEC50, SERPINB2 mRNA (converted)) [nM] | EC50 [3, 6] [nM] | EC50 [3, 7] [nM] | EC50 ([3]; read-out: pEC50, EGR1 mRNA (converted)) [nM] | EC50 ([3]; read-out: pEC50, FOS mRNA (converted)) [nM] | EC50 ([3]; read-out: pEC50, IL8 mRNA (converted)) [nM] | EC50 [3, 8] [nM] | EC50 ([3]; read-out: pEC50, NTS mRNA (converted)) [nM] | EC50 [3, 9] [nM] | EC50 [4] [nM] | NPSR1 mRNA levels [5] |
| --- | --- | --- | --- | --- | --- | --- | --- | --- | --- | --- | --- | --- | --- | --- | --- | --- | --- |
| SFRNGVGTGMKKTSFQRAKS [NPS, neuropeptide S] | 4.47 | 170 | 100 | 100 | 83.2 | 89.1 | 126 | 234 | 45.7 | 72.4 | 53.7 | 44.7 | 7.94 | 87.1 | 162 | 3.89 |  |
| TNFα |  |  |  |  |  |  |  |  |  |  |  |  |  |  |  |  | generated elevated NPSR1 mRNA levels |
| IFNγ: pro-inflammatory stimulus (protein, UniProt P01579 24-161, looked up) Interferon gamma: QDPYVKEAENLKKYFNAGHSDVADNGTLFLGILKNWKEESDRKIMQSQIVSFYFKLFKNFKDDQSIQKSVETIKEDMNVKFFNSNKKKRDDFEKLTNYSVTDLNVQRKAIHELIQVMAELSPAAKTGKRKRSQMLFRG |  |  |  |  |  |  |  |  |  |  |  |  |  |  |  |  | generated elevated NPSR1 mRNA levels |

— article PMC3142248, “The asthma candidate gene NPSR1 mediates isoform specific downstream signalling” (BMC Pulmonary Medicine, 2011)
